Test system: MCH receptors
Assay: MCH receptor activity class (method not given)
Details: class by percent of control at 10^-7 M or IC50

Compound	class
CCOc1cc(CN[C@H]2CC[C@@H](Nc3nccc(N(C)C)n3)CC2)ccc1OC [compound 1217]	3 (Class 3 The value of percent of control at 10^−7 M was more than 60% or the value of IC50 was more than 200 nM.)
CN(C)c1ccnc(N[C@H]2CC[C@@H](NCc3c[nH]nc3-c3ccc(C(F)(F)F)cc3)CC2)n1 [compound 1218]	3 (Class 3 The value of percent of control at 10^−7 M was more than 60% or the value of IC50 was more than 200 nM.)
COc1cc(CN[C@H]2CC[C@@H](Nc3nccc(N(C)C)n3)CC2)cc(OC)c1OC [compound 1219, N4,N4-dimethyl-N2-{cis-4-[(3,4,5-trimethoxybenzyl)amino]cyclohexcyl}pyrimidine-2,4-diamine]	3 (Class 3 The value of percent of control at 10^−7 M was more than 60% or the value of IC50 was more than 200 nM.)
COc1cc(CN[C@H]2CC[C@@H](Nc3nccc(N(C)C)n3)CC2)cc(OC)c1 [compound 1221]	3 (Class 3 The value of percent of control at 10^−7 M was more than 60% or the value of IC50 was more than 200 nM.)
COc1cc(CN[C@H]2CC[C@@H](Nc3nccc(N(C)C)n3)CC2)cc(I)c1O [compound 1222]	3 (Class 3 The value of percent of control at 10^−7 M was more than 60% or the value of IC50 was more than 200 nM.)
Cc1cc(CN[C@H]2CC[C@@H](Nc3nccc(N(C)C)n3)CC2)cc(C)c1O [compound 1223]	3 (Class 3 The value of percent of control at 10^−7 M was more than 60% or the value of IC50 was more than 200 nM.)
COc1cccc(CN[C@H]2CC[C@@H](Nc3nccc(N(C)C)n3)CC2)c1 [compound 1224]	3 (Class 3 The value of percent of control at 10^−7 M was more than 60% or the value of IC50 was more than 200 nM.)
CN(C)c1ccnc(N[C@H]2CC[C@@H](NCc3ccc(F)c(Br)c3)CC2)n1 [compound 1225]	3 (Class 3 The value of percent of control at 10^−7 M was more than 60% or the value of IC50 was more than 200 nM.)
Cc1ccc2occ(CN[C@H]3CC[C@@H](Nc4nccc(N(C)C)n4)CC3)c(=O)c2c1 [compound 1227, 3-{[(cis-4-{[4-(dimethylamino)pyrimidin-2-yl]amino}-cylohexyl}-amino]methyl}-6-methyl-4H-chromen-4-one]	3 (Class 3 The value of percent of control at 10^−7 M was more than 60% or the value of IC50 was more than 200 nM.)
Cc1cc2occ(CN[C@H]3CC[C@@H](Nc4nccc(N(C)C)n4)CC3)c(=O)c2cc1Cl [compound 1228]	3 (Class 3 The value of percent of control at 10^−7 M was more than 60% or the value of IC50 was more than 200 nM.)
Cc1cc(C)c2occ(CN[C@H]3CC[C@@H](Nc4nccc(N(C)C)n4)CC3)c(=O)c2c1 [compound 1229]	3 (Class 3 The value of percent of control at 10^−7 M was more than 60% or the value of IC50 was more than 200 nM.)
Cc1cc(CN[C@H]2CC[C@@H](Nc3nccc(N(C)C)n3)CC2)c(C)n1-c1ccccc1 [compound 1230]	3 (Class 3 The value of percent of control at 10^−7 M was more than 60% or the value of IC50 was more than 200 nM.)
CCCCC/C(=C\c1ccccc1)CN[C@H]1CC[C@@H](Nc2nccc(N(C)C)n2)CC1 [compound 1232]	3 (Class 3 The value of percent of control at 10^−7 M was more than 60% or the value of IC50 was more than 200 nM.)
COc1ccccc1/C=C/CN[C@H]1CC[C@@H](Nc2nccc(N(C)C)n2)CC1 [compound 1233]	3 (Class 3 The value of percent of control at 10^−7 M was more than 60% or the value of IC50 was more than 200 nM.)
CN(C)c1ccnc(N[C@H]2CC[C@@H](NCc3coc4ccc(Cl)cc4c3=O)CC2)n1 [compound 1234]	3 (Class 3 The value of percent of control at 10^−7 M was more than 60% or the value of IC50 was more than 200 nM.)
CN(C)c1ccnc(N[C@H]2CC[C@@H](NCc3cncc(-c4ccc(F)cc4)c3)CC2)n1 [compound 1235]	2 (Class 2: The value of percent of control at 10^−7 M was from 40% to 60% or the value of IC′50 was from 50 nM to 200 nM.)
CCOC(=O)c1[nH]c2cc(Cl)cc(Cl)c2c1CN[C@H]1CC[C@@H](Nc2nccc(N(C)C)n2)CC1 [compound 1236]	1 (Class 1: The value of percent of control at 10^−7 M was less than 40% or the value of IC50 was less than 50 nM.)
COC(=O)c1ccccc1Sc1nc2sccn2c1CN[C@H]1CC[C@@H](Nc2nccc(N(C)C)n2)CC1 [compound 1237]	3 (Class 3 The value of percent of control at 10^−7 M was more than 60% or the value of IC50 was more than 200 nM.)
CN(C)c1ccnc(N[C@H]2CC[C@@H](NCc3c[nH]nc3-c3ccc(F)cc3)CC2)n1 [compound 1238]	3 (Class 3 The value of percent of control at 10^−7 M was more than 60% or the value of IC50 was more than 200 nM.)
CSc1ccc(CN[C@H]2CC[C@@H](Nc3nccc(N(C)C)n3)CC2)cc1 [compound 1239]	3 (Class 3 The value of percent of control at 10^−7 M was more than 60% or the value of IC50 was more than 200 nM.)
CN(C)c1ccnc(N[C@H]2CC[C@@H](NCc3cccc4ccccc34)CC2)n1 [compound 1240]	3 (Class 3 The value of percent of control at 10^−7 M was more than 60% or the value of IC50 was more than 200 nM.)
COc1cc(CN[C@H]2CC[C@@H](Nc3nccc(N(C)C)n3)CC2)ccc1O [compound 1241]	3 (Class 3 The value of percent of control at 10^−7 M was more than 60% or the value of IC50 was more than 200 nM.)

Compound	class
CN(C)c1ccnc(N[C@H]2CC[C@@H](NCc3ccc(F)c(Cl)c3)CC2)n1 [compound 1242]	3 (Class 3 The value of percent of control at 10^−7 M was more than 60% or the value of IC50 was more than 200 nM.)
COc1cccc(OC)c1CNC[C@H]1CC[C@@H](Nc2nccc(N(C)C)n2)CC1 [compound 1243]	2 (Class 2: The value of percent of control at 10^−7 M was from 40% to 60% or the value of IC′50 was from 50 nM to 200 nM.)
CCOc1ccccc1CNC[C@H]1CC[C@@H](Nc2nccc(N(C)C)n2)CC1 [compound 1244]	2 (Class 2: The value of percent of control at 10^−7 M was from 40% to 60% or the value of IC′50 was from 50 nM to 200 nM.)
CN(C)c1ccnc(N[C@H]2CC[C@@H](CNCc3c[nH]c4ccccc34)CC2)n1 [compound 1245]	3 (Class 3 The value of percent of control at 10^−7 M was more than 60% or the value of IC50 was more than 200 nM.)
COc1ccc(OC)c(CNC[C@H]2CC[C@@H](Nc3nccc(N(C)C)n3)CC2)c1 [compound 1246]	3 (Class 3 The value of percent of control at 10^−7 M was more than 60% or the value of IC50 was more than 200 nM.)
COc1ccc(CNC[C@H]2CC[C@@H](Nc3nccc(N(C)C)n3)CC2)c2ccccc12 [compound 1247]	1 (Class 1: The value of percent of control at 10^−7 M was less than 40% or the value of IC50 was less than 50 nM.)
COc1ccc2[nH]cc(CNC[C@H]3CC[C@@H](Nc4nccc(N(C)C)n4)CC3)c2c1 [compound 1248]	2 (Class 2: The value of percent of control at 10^−7 M was from 40% to 60% or the value of IC′50 was from 50 nM to 200 nM.)
COc1ccc2ccccc2c1CNC[C@H]1CC[C@@H](Nc2nccc(N(C)C)n2)CC1 [compound 1249]	1 (Class 1: The value of percent of control at 10^−7 M was less than 40% or the value of IC50 was less than 50 nM.)
COc1cc(Br)cc(CNC[C@H]2CC[C@@H](Nc3nccc(N(C)C)n3)CC2)c1O [compound 1250]	1 (Class 1: The value of percent of control at 10^−7 M was less than 40% or the value of IC50 was less than 50 nM.)
CN(C)c1ccnc(N[C@H]2CC[C@@H](CNCc3c[nH]c4ccc(Br)cc34)CC2)n1 [compound 1251]	1 (Class 1: The value of percent of control at 10^−7 M was less than 40% or the value of IC50 was less than 50 nM.)
COc1ccc(CNC[C@H]2CC[C@@H](Nc3nccc(N(C)C)n3)CC2)c(OC)c1 [compound 1252]	2 (Class 2: The value of percent of control at 10^−7 M was from 40% to 60% or the value of IC′50 was from 50 nM to 200 nM.)
COc1ccc(CNC[C@H]2CC[C@@H](Nc3nccc(N(C)C)n3)CC2)c(OC)c1OC [compound 1253]	1 (Class 1: The value of percent of control at 10^−7 M was less than 40% or the value of IC50 was less than 50 nM.)
CCOc1cc(CNC[C@H]2CC[C@@H](Nc3nccc(N(C)C)n3)CC2)ccc1OC [compound 1255]	1 (Class 1: The value of percent of control at 10^−7 M was less than 40% or the value of IC50 was less than 50 nM.)
CN(C)c1ccnc(N[C@H]2CC[C@@H](CNCc3c[nH]nc3-c3ccc(C(F)(F)F)cc3)CC2)n1 [compound 1256]	1 (Class 1: The value of percent of control at 10^−7 M was less than 40% or the value of IC50 was less than 50 nM.)
COc1cc(CNC[C@H]2CC[C@@H](Nc3nccc(N(C)C)n3)CC2)cc(OC)c1OC [compound 1257]	2 (Class 2: The value of percent of control at 10^−7 M was from 40% to 60% or the value of IC′50 was from 50 nM to 200 nM.)
COc1cc(CNC[C@H]2CC[C@@H](Nc3nccc(N(C)C)n3)CC2)cc(OC)c1 [compound 1259]	3 (Class 3 The value of percent of control at 10^−7 M was more than 60% or the value of IC50 was more than 200 nM.)
COc1cc(CNC[C@H]2CC[C@@H](Nc3nccc(N(C)C)n3)CC2)cc(I)c1O [compound 1260]	1 (Class 1: The value of percent of control at 10^−7 M was less than 40% or the value of IC50 was less than 50 nM.)
Cc1cc(CNC[C@H]2CC[C@@H](Nc3nccc(N(C)C)n3)CC2)cc(C)c1O [compound 1261]	1 (Class 1: The value of percent of control at 10^−7 M was less than 40% or the value of IC50 was less than 50 nM.)
COc1ccc(CNC[C@H]2CC[C@@H](Nc3nccc(N(C)C)n3)CC2)cc1 [compound 1262]	3 (Class 3 The value of percent of control at 10^−7 M was more than 60% or the value of IC50 was more than 200 nM.)
CN(C)c1ccnc(N[C@H]2CC[C@@H](CNCc3ccc4c(c3)OCCO4)CC2)n1 [compound 1263]	3 (Class 3 The value of percent of control at 10^−7 M was more than 60% or the value of IC50 was more than 200 nM.)
CN(C)c1ccnc(N[C@H]2CC[C@@H](CNCc3cccc(Br)c3)CC2)n1 [compound 1264]	3 (Class 3 The value of percent of control at 10^−7 M was more than 60% or the value of IC50 was more than 200 nM.)
